Nine compounds from patent US20250268903A1, “RXFP1 AGONISTS” (BRISTOL-MYERS SQUIBB COMPANY, priority 2021, published 2025) can be followed below.

Usually EC50 stands for the concentration needed to bring the measured effect to its halfway point. Read a low EC50 as greater potency.

The target in this test is T1, human RXFP1 (Homo sapiens, UniProt Q9HBX9).
T1 construct: expressed in transfected cells
T1 sequence (Q9HBX9 1-757): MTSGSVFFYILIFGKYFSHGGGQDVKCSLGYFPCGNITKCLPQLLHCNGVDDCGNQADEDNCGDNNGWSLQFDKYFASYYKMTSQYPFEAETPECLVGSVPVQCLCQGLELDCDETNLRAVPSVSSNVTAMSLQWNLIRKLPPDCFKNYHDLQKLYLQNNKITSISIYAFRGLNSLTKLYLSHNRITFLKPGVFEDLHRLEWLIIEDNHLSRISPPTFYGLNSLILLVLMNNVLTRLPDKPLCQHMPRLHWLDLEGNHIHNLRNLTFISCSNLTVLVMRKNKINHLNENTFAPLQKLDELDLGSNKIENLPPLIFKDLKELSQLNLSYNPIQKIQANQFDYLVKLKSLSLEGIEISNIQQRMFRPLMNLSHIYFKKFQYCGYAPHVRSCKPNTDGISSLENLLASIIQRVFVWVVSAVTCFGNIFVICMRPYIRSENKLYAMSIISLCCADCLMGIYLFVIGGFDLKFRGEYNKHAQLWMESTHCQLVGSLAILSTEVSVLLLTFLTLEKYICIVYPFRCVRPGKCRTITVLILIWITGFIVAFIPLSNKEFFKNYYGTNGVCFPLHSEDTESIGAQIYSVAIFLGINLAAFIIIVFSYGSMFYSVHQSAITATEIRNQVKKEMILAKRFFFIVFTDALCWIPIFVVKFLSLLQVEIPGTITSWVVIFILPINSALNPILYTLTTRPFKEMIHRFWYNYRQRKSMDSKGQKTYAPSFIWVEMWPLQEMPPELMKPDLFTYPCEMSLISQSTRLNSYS
The test is described as follows: hRXFP1 HEK293 cAMP assay (HTRF). The settings on record: HEK293 cells stably expressing human RXFP1, 30 min at room temperature. It is filed as cell-based. The method, boiled down:
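hRXFP1-HEK293 stable line; HBSS + Ca/Mg, 20 mM HEPES, 0.05% BSA, 0.5 mM IBMX; cpd 0.010 nM–50 μM, 2% DMSO; 30 min RT; lysis, HTRF cAMP detection; 4-PL fit.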
With `COc1ccc(S(=O)(=O)N2CCN(C(=O)OC(C)(C)C)CC2CCO)cc1C(=O)N[C@H]1[C@@H](C(=O)Nc2ccc(F)c(C(F)(F)F)c2)[C@H]2CC[C@@H]1/C2=C\C(F)(F)F` (stereo partly drawn) [Example 215, tert-butyl 4-(3-{[(1R,2R,3S,4R,7Z)-3-{[4-fluoro-3-(trifluoromethyl)phenyl]carbamoyl}-7-(2.2,2-trifluoroethylidene)bicyclo[2.2.1]heptan-2-yl]carbamoyl}-4-methoxy-benzenesulfonyl)-3-(2-hydroxyethyl) piperazine-1-carboxylate], the EC50 was 761 nM.

For `COc1ccc(C#CC(C)(C)O)cc1C(=O)N[C@@H]1C2CCC(/C2=C/C(F)(F)F)[C@@H]1C(=O)Nc1ccc(F)c(C(F)(F)F)c1` (stereo partly drawn) [Example 70, (2S,3R,7Z)-N-[4-fluoro-3-(trifluoromethyl)phe-nyl]-3-[5-(3-hydroxy-3-methylbut-1-yn-1-yl)-2-methoxybenzamido]-7-(2,2,2-trifluoroethylidene)bi-cyclo[2.2.1]heptane-2-carboxamide], the EC50 came out at 309 nM.

The compound “(1R,4R,7Z)-7- (cyclopentyl- methylidene)- N-[4-fluoro-3- (trifluoromethyl) phenyl]-3-[5-(3- hydroxy-3- methylbutyl)-2- methoxybenzamido] bicyclo[2.2.1] heptane-2- carboxamide [Example 268]” showed an EC50 of 29.6 nM.

With `COc1ccc(/C=C/C(=O)N(C)CCO)cc1C(=O)N[C@@H]1C2CCC(/C2=C/C(F)(F)F)[C@@H]1C(=O)Nc1ccc(F)c(C(F)(F)F)c1` (stereo partly drawn) [Example 126, (2S,3R,7Z)-N-[4-fluoro-3-(trifluoromethyl)phe-nyl]-3-{5-[(1E)-2-[(2-hydroxyethyl)(meth-yl)carbamoyl]eth-1-en-1-yl]-2-methoxybenzamido}-7-(2,2,2-trifluoroethylidene)bi-cyclo[2.2.1]heptane-2-carboxamide], the EC50 came out at 35 nM.

Turning to `COc1ccc(CCCCC(F)(F)F)cc1C(=O)NC1C2CCC(/C2=C/C(F)(F)F)[C@@H]1C(=O)Nc1ccc(F)c(C(F)(F)F)c1` (stereo partly drawn) [Example 186, (7Z)-N-[4-fluoro-3-(trifluoromethyl)phe-nyl]-3-[2-methoxy-5-(5,5,5-trifluoropentyl)benza-mido]-7-(2,2,2-trifluoroethylidene)bi-cyclo[2.2.1]heptane-2-carboxamide], the response was half-maximal at 280 nM (EC50).

Take `COc1ccc(CO)cc1C(=O)N[C@H]1[C@@H](C(=O)Nc2ccc(F)c(C(F)(F)F)c2)[C@H]2CC[C@@H]1/C2=C\C(F)(F)F` [Example 10, (1R,2S,3R,4R,Z)—N-(4-fluoro-3-(trifluoromethyl)phenyl)-3-(5-(hydroxymethyl)-2-methoxybenzamido)-7-(2,2,2-trifluoroethylidene) bicyclo[2.2.1]heptane-2-carboxamide]: the EC50 stood at 962 nM.

Take `COc1ccc(/C=C/C(=O)N2CCO[C@@H](CO)C2)cc1C(=O)N[C@H]1[C@@H](C(=O)Nc2ccc(F)c(C(F)(F)F)c2)[C@H]2CC[C@@H]1/C2=C\C(F)(F)F` [Example 310]: the response was half-maximal at 87 nM (EC50).

Regarding `COc1ccc(CCC(C)(C)O)cc1C(=O)NC1C2CCC(/C2=C/CC2CCC2)[C@@H]1C(=O)Nc1ccc(F)c(C(F)(F)F)c1` (stereo partly drawn) [Example 174, (7Z)-7-(2-cyclobutylethylidene)-N-[4-fluoro-3-(trifluoromethyl)phe-nyl]-3-[5-(3-hydroxy-3-methylbutyl)-2-methoxybenzamido] bicyclo[2.2.1]heptane-2-carboxamide], the EC50 is 66 nM.

Consider `COc1ccc(S(=O)(=O)Nc2nnn[nH]2)cc1C(=O)NC1C2CCC(/C2=C/C(F)(F)F)[C@@H]1C(=O)Nc1ccc(F)c(C(F)(F)F)c1` (stereo partly drawn) [Example 206, (2S,3R,7Z)-N-[4-fluoro-3-(trifluoromethyl)phe-nyl]-3-{2-methoxy-5-[(1H-1,2,3,4-tetrazol-5-yl)sulfamoyl]benza-mido}-7-(2,2,2-trifluoroethylidene)bi-cyclo[2.2.1]heptane-2-carboxamide], for which a half-maximal effect (EC50) was put at 3050 nM.
